For the assay, the system named is Elongator complex protein 1 (ELP1, also referred to as IKBKAP). The experiment in a line: IKBKAP-HTRF assay (IKBKAP protein in lysates of FD patient-derived fibroblasts). It is filed as cell-based, human. Conditions: 48 hours incubation, 7-point concentration curve. Summed up:
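FD patient-derived fibroblasts (10,000/well) were treated 48 h at 37 °C with a 7-point, 3.16-fold compound series in triplicate, then lysed. IKBKAP was read by sandwich HTRF (donor/acceptor anti-IKAP antibodies, overnight at 4 °C, 665/620 nm). MFI is ΔF over vehicle ΔF; EC2x is the concentration giving twice the vehicle IKBKAP level.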

From US12384797B2, “Thioeno[3,2-b] pyridin-7-amine compounds for treating familial dysautonomia” (PTC THERAPEUTICS, INC., priority 2019, dated 2025) come the findings set out here.

Structures are written as SMILES.

On to `C[C@@H](O)[C@H](N)Cc1sc2c(NCc3ccco3)cc(Cl)nc2c1Br` [Compound 165, (2R,3R)-3-amino-4-(3-bromo-5-chloro-7-{[(furan-2-yl)methyl]amino}thieno[3,2-b]pyridin-2-yl)butan-2-ol], for which the “EC2x for IKBKAP protein expression (concentration producing two times the amount of IKBKAP protein vs DMSO vehicle control)” value is “***** (≤0.005 μM is indicated by five stars (*****))” and the “MFI (maximum fold increase in IKBKAP protein abundance relative to the vehicle control)” value is given as “***** (>4.9 is indicated by five stars (*****))”.

In the case of `C#C[C@H](N)Cc1sc2c(NCc3ccco3)cc(Cl)nc2c1Cl` [Compound 166, 2-[(2R)-2-aminobut-3-yn-1-yl]-3,5-dichloro-N-[(furan-2-yl)methyl]thieno[3,2-b]pyridin-7-amine], the “EC2x for IKBKAP protein expression (concentration producing two times the amount of IKBKAP protein vs DMSO vehicle control)” value is recorded as “***** (≤0.005 μM is indicated by five stars (*****))”; the “MFI (maximum fold increase in IKBKAP protein abundance relative to the vehicle control)” value was “**** (between >3.9 and ≤4.9 is indicated by four stars (****))”.

For the molecule `C[S+]([O-])C[C@H](N)Cc1sc2c(NCc3ccco3)cc(Cl)nc2c1Cl` (stereo partly drawn) [Compound 167, [(2R)-2-amino-3-(3,5-dichloro-7-{[(furan-2-yl)methyl]amino}thieno[3,2-b]pyridin-2-yl)propyl](methyl)sulfaniumolate], the “EC2x for IKBKAP protein expression (concentration producing two times the amount of IKBKAP protein vs DMSO vehicle control)” value is recorded as “***** (≤0.005 μM is indicated by five stars (*****))” and the “MFI (maximum fold increase in IKBKAP protein abundance relative to the vehicle control)” value is on record as “***** (>4.9 is indicated by five stars (*****))”.
